Data from PubChem BioAssay AID248 (DTP/NCI, 2004).
Where “and” joins values, the source holds several entries; their conditions need not be identical. Equal values may be shown once. Inconclusive results and toxic doses are left out. Rule as the data show it: active = T/C of 150% or more; inactive = T/C below 125%.

Tested on: L1210 leukemia ip in BDF1 mice, survival T/C
Assay: NCI In Vivo Anticancer Drug Screen. Data for tumor model L1210 Leukemia (intraperitoneal) in B6D2F1 (BDF1) mice
Conditions: endpoint: mean survival time, higher = longer survival
Procedure, shortened: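 Tumor was transplanted into mice, which were then dosed with test compound or vehicle alone. Survival was recorded for each group, and the treated figure was expressed relative to the control figure.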

[1] = dose: 50.0 mg/kg/injection, schedule: Q01DX009 (ip), vehicle: Klucel (hydroxypropylcellulose) (HPC)
[2] = dose: 100.0 mg/kg/injection, schedule: Q01DX009 (ip), vehicle: Klucel (hydroxypropylcellulose) (HPC)
[3] = dose: 100.0 mg/kg/injection, schedule: Q04DX003 (ip), vehicle: Klucel (hydroxypropylcellulose) (HPC)
[4] = dose: 200.0 mg/kg/injection, schedule: Q01DX009 (ip), vehicle: Klucel (hydroxypropylcellulose) (HPC)
[5] = dose: 200.0 mg/kg/injection, schedule: Q04DX003 (ip), vehicle: Klucel (hydroxypropylcellulose) (HPC)
[6] = dose: 400.0 mg/kg/injection, schedule: Q01DX009 (ip), vehicle: Klucel (hydroxypropylcellulose) (HPC)
[7] = dose: 400.0 mg/kg/injection, schedule: Q04DX003 (ip), vehicle: Klucel (hydroxypropylcellulose) (HPC)
[8] = dose: 100.0 mg/kg/injection, schedule: Q01DX009 (ip), vehicle: saline with Tween-80
[9] = dose: 100.0 mg/kg/injection, schedule: Q04DX003 (ip), vehicle: saline with Tween-80
[10] = dose: 200.0 mg/kg/injection, schedule: Q01DX009 (ip), vehicle: saline with Tween-80
[11] = dose: 200.0 mg/kg/injection, schedule: Q04DX003 (ip), vehicle: saline with Tween-80
[12] = dose: 400.0 mg/kg/injection, schedule: Q01DX009 (ip), vehicle: saline with Tween-80
[13] = dose: 100.0 mg/kg/injection, schedule: Q04DX002 (ip), vehicle: Klucel (hydroxypropylcellulose) (HPC)
[14] = dose: 12.5 mg/kg/injection, schedule: Q01DX009 (ip), vehicle: saline
[15] = dose: 25.0 mg/kg/injection, schedule: Q01DX009 (ip), vehicle: saline
[16] = dose: 100.0 mg/kg/injection, schedule: Q01DX001 (ip), vehicle: saline
[17] = dose: 200.0 mg/kg/injection, schedule: Q01DX001 (ip), vehicle: saline
[18] = dose: 400.0 mg/kg/injection, schedule: Q01DX001 (ip), vehicle: saline
[19] = dose: 100.0 mg/kg/injection, schedule: Q01DX009 (ip), vehicle: saline

Measured: T/C

CCOC(CNC(=O)OCc1ccccc1)OCC
inactive: [1] 98 % of control | [2] 96 % of control and 106 % of control | [3] 96 % of control | dose: 150.0 mg/kg/injection, schedule: Q01DX009 (ip), vehicle: Klucel (hydroxypropylcellulose) (HPC) 102 % of control | [4] 98 % of control | [5] 105 % of control | [6] 101 % of control | [7] 97 % of control

COC1(OC)C2CCC1(Cl)C(Cl)=C2Cl (centres undefined)
inactive: [8] 95 % of control | [9] 93 % of control | [10] 92 % of control | [11] 91 % of control | [12] 89 % of control

O=C(O)c1ccnc(Cl)c1
inactive: [9] 101 % of control | [11] 102 % of control | dose: 400.0 mg/kg/injection, schedule: Q04DX003 (ip), vehicle: saline with Tween-80 101 % of control

CCC(CC)C(N)=O
inactive: dose: 100.0 mg/kg/injection, schedule: Q01DX001 (ip), vehicle: Klucel (hydroxypropylcellulose) (HPC) 100 % of control | dose: 200.0 mg/kg/injection, schedule: Q01DX001 (ip), vehicle: Klucel (hydroxypropylcellulose) (HPC) 102 % of control | dose: 400.0 mg/kg/injection, schedule: Q01DX001 (ip), vehicle: Klucel (hydroxypropylcellulose) (HPC) 107 % of control

COc1ccc(CN2CCCN(Cc3ccc(OC)cc3)C2c2ccc(OC)cc2)cc1
inactive: [8] 92 % of control | dose: 100.0 mg/kg/injection, schedule: Q04DX003 (ip), vehicle: acetone 94 % of control | [10] 98 % of control and 87 % of control | dose: 200.0 mg/kg/injection, schedule: Q04DX003 (ip), vehicle: acetone 97 % of control | [12] 96 % of control | dose: 400.0 mg/kg/injection, schedule: Q04DX003 (ip), vehicle: acetone 95 % of control

CC12CCC(/C(=C/N(O)/C=C3\C(=O)C4(C)CCC3C4(C)C)C1=O)C2(C)C
inactive: dose: 75.0 mg/kg/injection, schedule: Q01DX001 (ip), vehicle: saline 96 % of control | dose: 150.0 mg/kg/injection, schedule: Q01DX001 (ip), vehicle: saline 91 % of control | dose: 300.0 mg/kg/injection, schedule: Q01DX001 (ip), vehicle: saline 94 % of control

CC(CC(CCC(=O)O)(c1ccccc1)c1ccccc1)N(C)C (centres undefined)
inactive: dose: 100.0 mg/kg/injection, schedule: Q01DX001 (ip), vehicle: carboxymethylcellulose (CMC) 105 % of control | dose: 200.0 mg/kg/injection, schedule: Q01DX001 (ip), vehicle: carboxymethylcellulose (CMC) 97 % of control

C1CCc2c(c3c(c4c2CCCC4)CCCC3)C1
inactive: [13] 100 % of control | dose: 200.0 mg/kg/injection, schedule: Q04DX002 (ip), vehicle: Klucel (hydroxypropylcellulose) (HPC) 93 % of control | dose: 400.0 mg/kg/injection, schedule: Q04DX002 (ip), vehicle: Klucel (hydroxypropylcellulose) (HPC) 97 % of control

CC(=O)NC(CSSCC(N)C(=O)O)C(=O)O (centres undefined) (tested in a mixture with another compound)
inactive: dose: 12.5 mg/kg/injection, schedule: Q04DX002 (ip), vehicle: DMSO 93 % of control | dose: 25.0 mg/kg/injection, schedule: Q04DX002 (ip), vehicle: DMSO 103 % of control | dose: 50.0 mg/kg/injection, schedule: Q04DX002 (ip), vehicle: DMSO 93 % of control

O=C(CC=C(c1ccccc1)c1ccccc1)Nc1ccccc1
inactive: dose: 100.0 mg/kg/injection, schedule: Q01DX001 (ip), vehicle: saline with Tween-80 90 % of control | dose: 200.0 mg/kg/injection, schedule: Q01DX001 (ip), vehicle: saline with Tween-80 87 % of control

C1CN2CCC1C1(C2)SSC2(CN3CCC2CC3)S1 (centres undefined)
inactive: dose: 6.25 mg/kg/injection, schedule: Q01DX009 (ip), vehicle: saline 107 % of control | dose: 6.25 mg/kg/injection, schedule: Q04DX003 (ip), vehicle: saline 96 % of control | [14] 96 % of control | dose: 12.5 mg/kg/injection, schedule: Q04DX003 (ip), vehicle: saline 107 % of control | [15] 119 % of control | dose: 25.0 mg/kg/injection, schedule: Q04DX003 (ip), vehicle: saline 94 % of control

Cc1cccc(NC(=O)/C=C/c2ccccc2)n1
inactive: dose: 25.0 mg/kg/injection, schedule: Q01DX009 (ip), vehicle: Klucel (hydroxypropylcellulose) (HPC) 96 % of control | [1] 89 % of control | [2] 103 % of control and 91 % of control | [13] 91 % of control

NC(N)=N/N=C/C(Cl)(Cl)Cl
inactive: dose: 15.0 mg/kg/injection, schedule: Q01DX Z (ip), vehicle: saline 87 % of control | dose: 30.0 mg/kg/injection, schedule: Q01DX Z (ip), vehicle: saline 103 % of control | dose: 60.0 mg/kg/injection, schedule: Q01DX Z (ip), vehicle: saline 95 % of control | dose: 60.0 mg/kg/injection, schedule: Q01DX Z (oral), vehicle: saline 97 % of control | dose: 120.0 mg/kg/injection, schedule: Q01DX Z (oral), vehicle: saline 97 % of control | dose: 240.0 mg/kg/injection, schedule: Q01DX Z (oral), vehicle: saline 95 % of control | dose: 480.0 mg/kg/injection, schedule: Q01DX Z (oral), vehicle: saline 98 % of control

CCN(CC)Cc1ccccc1
inactive: dose: 75.0 mg/kg/injection, schedule: Q01DX001 (ip), vehicle: other 95 % of control

c1cc2[nH]c1C1(CCCC1)c1ccc([nH]1)C1(CCCC1)c1ccc([nH]1)C1(CCCC1)c1ccc([nH]1)C21CCCC1
inactive: [16] 102 % of control | [17] 103 % of control | [18] 94 % of control

CCOc1ccc(Br)cc1/C=C/C(C)=O
inactive: [19] 103 % of control | dose: 100.0 mg/kg/injection, schedule: Q04DX003 (ip), vehicle: saline 95 % of control | dose: 200.0 mg/kg/injection, schedule: Q01DX009 (ip), vehicle: saline 98 % of control | dose: 200.0 mg/kg/injection, schedule: Q04DX003 (ip), vehicle: saline 111 % of control | dose: 400.0 mg/kg/injection, schedule: Q01DX009 (ip), vehicle: saline 90 % of control | dose: 400.0 mg/kg/injection, schedule: Q04DX003 (ip), vehicle: saline 97 % of control

ClC(Cl)(Cl)C1OCOC(C(Cl)(Cl)Cl)OCO1 (centres undefined)
inactive: [2] 94 % of control | [3] 98 % of control | [4] 93 % of control | [5] 98 % of control | [6] 94 % of control | [7] 102 % of control

CC1(C)N=C(N)N=C(N)N1c1cccc(C(=O)Nc2cccc(S(=O)(=O)F)c2)c1
inactive: dose: 6.25 mg/kg/injection, schedule: Q#A X018 (ip), vehicle: saline 97 % of control | [14] 103 % of control | dose: 12.5 mg/kg/injection, schedule: Q#A X018 (ip), vehicle: saline 101 % of control | [15] 101 % of control | dose: 25.0 mg/kg/injection, schedule: Q#A X018 (ip), vehicle: saline 101 % of control | dose: 50.0 mg/kg/injection, schedule: Q01DX009 (ip), vehicle: saline 95 % of control and 107 % of control | dose: 50.0 mg/kg/injection, schedule: Q#A X018 (ip), vehicle: saline 101 % of control | [16] 105 % of control | [19] 104 % of control | [17] 94 % of control

CCCCCCCCCCCCCCCC1=C(O)c2ccccc2C(=O)C1=O
inactive: [16] 112 % of control | [17] 101 % of control | [18] 103 % of control

CCSC(=S)SCC(=O)O
inactive: [9] 107 % of control | [11] 92 % of control

N#Cc1ccc2c(c1)C([P+](c1ccccc1)(c1ccccc1)c1ccccc1)c1ccccc1-2 (centres undefined)
inactive: dose: 75.0 mg/kg/injection, schedule: Q01DX001 (ip), vehicle: carboxymethylcellulose (CMC) 88 % of control | dose: 300.0 mg/kg/injection, schedule: Q01DX001 (ip), vehicle: carboxymethylcellulose (CMC) 92 % of control

Cc1cc(C(C)(C)C)ccc1S(=O)(=O)C1CC1c1ccccc1 (centres undefined)
inactive: [16] 98 % of control | [17] 102 % of control | [18] 98 % of control

Nc1ncccn1
inactive: [3] 101 % of control | [5] 93 % of control | [7] 101 % of control
